Tests used:
5-HT (h) = target: T1, 5-HT (h) (Homo sapiens, UniProt P31645); assay: cell-based; assay type: cell-based; conditions: read-out: 5-HT (h) in vitro functional uptake
T1 construct: expressed in transfected cells; host or cells: HEK-293
Method: (§1) Functional activity of the compounds was determined in vitro in cellular assays using recombinant human cell lines.

DAT (h) = target: T2, DAT (h) (Homo sapiens, UniProt Q01959); assay: cell-based; assay type: cell-based
T2 construct: expressed in transfected cells
T2 sequence (Q01959 whole entry): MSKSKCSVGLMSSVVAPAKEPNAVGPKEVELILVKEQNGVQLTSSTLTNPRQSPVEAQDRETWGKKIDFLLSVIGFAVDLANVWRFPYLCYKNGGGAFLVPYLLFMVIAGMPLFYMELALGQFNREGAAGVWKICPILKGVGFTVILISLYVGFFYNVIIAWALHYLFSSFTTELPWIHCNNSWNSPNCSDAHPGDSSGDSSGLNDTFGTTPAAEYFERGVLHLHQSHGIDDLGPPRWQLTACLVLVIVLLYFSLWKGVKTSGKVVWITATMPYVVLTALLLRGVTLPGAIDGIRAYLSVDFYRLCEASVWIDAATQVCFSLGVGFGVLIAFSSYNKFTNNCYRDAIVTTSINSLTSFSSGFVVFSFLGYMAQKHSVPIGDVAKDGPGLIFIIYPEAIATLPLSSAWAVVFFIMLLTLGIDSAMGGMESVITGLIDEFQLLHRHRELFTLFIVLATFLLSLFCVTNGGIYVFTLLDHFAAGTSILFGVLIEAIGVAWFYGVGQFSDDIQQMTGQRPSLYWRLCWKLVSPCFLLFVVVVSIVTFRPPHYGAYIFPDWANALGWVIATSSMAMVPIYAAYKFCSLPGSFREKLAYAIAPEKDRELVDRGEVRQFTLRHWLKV
Method: as §1

NET (h) = target: T3, NET (h) (Homo sapiens, UniProt P23975); assay: cell-based; assay type: cell-based; conditions: read-out: NET (h) in vitro functional uptake
T3 construct: expressed in transfected cells; host or cells: MDCK
T3 sequence (P23975 whole entry): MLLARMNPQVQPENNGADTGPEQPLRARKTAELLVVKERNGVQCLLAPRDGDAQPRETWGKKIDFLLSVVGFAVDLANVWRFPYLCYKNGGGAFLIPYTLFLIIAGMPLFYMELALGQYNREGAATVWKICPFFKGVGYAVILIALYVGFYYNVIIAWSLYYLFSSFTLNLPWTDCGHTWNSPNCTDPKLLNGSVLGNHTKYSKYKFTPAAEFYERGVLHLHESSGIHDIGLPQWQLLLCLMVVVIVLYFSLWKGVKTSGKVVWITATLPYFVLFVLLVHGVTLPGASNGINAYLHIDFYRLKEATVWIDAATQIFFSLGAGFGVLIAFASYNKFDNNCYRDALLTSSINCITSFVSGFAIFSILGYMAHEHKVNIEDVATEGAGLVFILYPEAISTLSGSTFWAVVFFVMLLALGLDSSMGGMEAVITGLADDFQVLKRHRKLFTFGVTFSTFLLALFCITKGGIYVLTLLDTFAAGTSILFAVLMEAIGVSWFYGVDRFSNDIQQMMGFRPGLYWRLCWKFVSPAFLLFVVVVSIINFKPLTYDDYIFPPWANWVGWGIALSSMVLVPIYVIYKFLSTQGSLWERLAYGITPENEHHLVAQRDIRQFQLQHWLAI
Method: as §1

DAT (r) = DAT (r) (Rattus norvegicus, UniProt P23977); assay: in vitro functional uptake, rat DAT; assay type: cell-based
Chain of DAT (r) (P23977 whole entry): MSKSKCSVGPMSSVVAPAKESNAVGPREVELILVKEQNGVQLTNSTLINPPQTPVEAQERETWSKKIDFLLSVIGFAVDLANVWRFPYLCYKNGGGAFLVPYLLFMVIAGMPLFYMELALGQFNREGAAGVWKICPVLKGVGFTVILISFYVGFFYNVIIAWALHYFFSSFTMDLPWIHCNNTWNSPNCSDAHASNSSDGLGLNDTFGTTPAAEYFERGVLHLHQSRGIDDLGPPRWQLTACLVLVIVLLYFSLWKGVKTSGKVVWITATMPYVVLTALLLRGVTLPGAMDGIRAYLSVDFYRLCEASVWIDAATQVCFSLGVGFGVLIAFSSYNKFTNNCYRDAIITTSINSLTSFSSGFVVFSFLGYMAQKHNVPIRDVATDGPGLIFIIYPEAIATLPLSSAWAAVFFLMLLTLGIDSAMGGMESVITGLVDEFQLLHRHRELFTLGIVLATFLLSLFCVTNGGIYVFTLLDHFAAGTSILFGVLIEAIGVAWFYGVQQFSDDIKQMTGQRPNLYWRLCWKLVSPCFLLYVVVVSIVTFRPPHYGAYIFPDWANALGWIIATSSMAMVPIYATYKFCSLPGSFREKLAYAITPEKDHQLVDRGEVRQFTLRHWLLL

DAT (SLC6A3) = target: T4, DAT (SLC6A3) (Homo sapiens, UniProt Q01959); assay: in vitro inhibition profile, IC50 of DAT (uptake assay); assay type: cell-based
T4 construct: expressed in transfected cells
T4 sequence (Q01959 whole entry): as the sequence (Q01959 whole entry) above
Method: Before the assay, cells expressing DAT are washed once with KRH and equilibrated for 5 min. The cells may be assayed in 24-well plates and incubated for 2-5 min. with tritiated amines. Nontransported inhibitors were preincubated for 5 min, and substrates were applied together with the tritiated substrate.
Experiments to determine the ionic requirements for DAT-mediated uptake are done in KRH buffer, substituting LiCl or choline Cl for NaCl (sodium-dependence) or substituting D-gluconates for NaCl and KCl, and Ca(NO3)2 for CaCl2 (chloride dependence). Cells are washed twice with sodium- or chloride-free KRH before the assay (each wash step at least 5 min). In all transport assays, incubation periods and substrate concentrations are chosen such that uptake obeyed first-order rate kinetics.
Vmax values for amine uptake in stable transfected DAT-cells are determined in parallel assays for at least two amines per experiment and expressed as relative values.

[1] = target: NET (norepinephrine transporter or SLC6A2) (Homo sapiens, UniProt P23975); assay: cell-based
Chain of NET (norepinephrine transporter or SLC6A2) (P23975 whole entry): as the sequence (P23975 whole entry) above

5-HT = 5-HT (Homo sapiens, UniProt P31645); assay: cell-based
Chain of 5-HT (P31645 whole entry): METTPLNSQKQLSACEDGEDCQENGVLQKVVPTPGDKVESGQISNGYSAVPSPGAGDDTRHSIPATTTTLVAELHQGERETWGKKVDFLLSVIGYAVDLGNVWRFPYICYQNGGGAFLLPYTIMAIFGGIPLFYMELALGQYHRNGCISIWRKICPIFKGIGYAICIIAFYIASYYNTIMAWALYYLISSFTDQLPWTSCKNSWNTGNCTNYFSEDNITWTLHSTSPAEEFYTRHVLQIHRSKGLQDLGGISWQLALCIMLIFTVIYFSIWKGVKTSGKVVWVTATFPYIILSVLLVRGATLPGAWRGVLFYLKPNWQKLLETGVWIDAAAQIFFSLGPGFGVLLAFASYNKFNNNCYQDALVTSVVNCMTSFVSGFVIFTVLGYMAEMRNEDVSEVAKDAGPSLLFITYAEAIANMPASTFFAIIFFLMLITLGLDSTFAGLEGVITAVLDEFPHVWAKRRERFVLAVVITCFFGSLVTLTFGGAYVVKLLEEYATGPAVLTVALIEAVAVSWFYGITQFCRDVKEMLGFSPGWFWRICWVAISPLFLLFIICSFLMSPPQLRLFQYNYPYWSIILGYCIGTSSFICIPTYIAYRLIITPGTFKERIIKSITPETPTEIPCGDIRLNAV

M1 receptor = target: T5, M1 receptor (Homo sapiens, UniProt P11229); assay: in vitro selectivity panel, M1 receptor; assay type: binding
T5 sequence (P11229 1-460): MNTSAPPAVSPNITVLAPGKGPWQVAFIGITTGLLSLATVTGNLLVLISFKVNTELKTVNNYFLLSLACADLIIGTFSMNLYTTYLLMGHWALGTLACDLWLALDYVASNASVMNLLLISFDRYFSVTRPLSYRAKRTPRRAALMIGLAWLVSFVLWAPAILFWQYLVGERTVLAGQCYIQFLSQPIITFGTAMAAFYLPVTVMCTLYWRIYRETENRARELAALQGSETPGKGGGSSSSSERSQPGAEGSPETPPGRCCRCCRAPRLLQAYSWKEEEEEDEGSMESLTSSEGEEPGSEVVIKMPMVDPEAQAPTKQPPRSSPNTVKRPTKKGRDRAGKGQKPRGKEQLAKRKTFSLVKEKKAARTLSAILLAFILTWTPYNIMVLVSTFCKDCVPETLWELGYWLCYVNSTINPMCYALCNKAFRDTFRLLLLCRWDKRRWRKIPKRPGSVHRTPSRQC
Method: (§2) The in vitro selectivity profile of two representative subject compounds, (3) and (1), are also tested against a panel of other receptors, including the M1 receptor, Histamine H1 receptor, sigma-1 (σ1) receptor, β1-adrenergic receptor, and dopamine D2 receptor. Representative results are listed below in Table III: […]

Histamine H1 receptor = Histamine H1 receptor (Homo sapiens, UniProt P35367); assay: in vitro selectivity panel, Histamine H1 receptor; assay type: binding
Chain of Histamine H1 receptor (P35367 whole entry): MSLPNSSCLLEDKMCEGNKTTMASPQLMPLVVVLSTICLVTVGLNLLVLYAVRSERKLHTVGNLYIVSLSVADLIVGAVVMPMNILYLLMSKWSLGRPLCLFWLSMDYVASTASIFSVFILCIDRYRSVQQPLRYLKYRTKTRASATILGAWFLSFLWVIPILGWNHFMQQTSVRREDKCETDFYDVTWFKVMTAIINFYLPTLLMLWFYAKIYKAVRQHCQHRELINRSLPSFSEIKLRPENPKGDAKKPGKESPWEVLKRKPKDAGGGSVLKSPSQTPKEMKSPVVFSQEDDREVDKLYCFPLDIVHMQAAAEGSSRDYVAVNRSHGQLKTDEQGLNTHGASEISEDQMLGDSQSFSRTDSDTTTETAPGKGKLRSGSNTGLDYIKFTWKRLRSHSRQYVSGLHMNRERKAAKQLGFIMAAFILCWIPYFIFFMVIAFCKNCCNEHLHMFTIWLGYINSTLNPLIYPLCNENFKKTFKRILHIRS
Method: as §2

sigma-1 (σ1) receptor = sigma-1 (σ1) receptor (Homo sapiens, UniProt Q99720); assay: in vitro selectivity panel, sigma-1 receptor; assay type: binding
Chain of sigma-1 (σ1) receptor (Q99720 whole entry): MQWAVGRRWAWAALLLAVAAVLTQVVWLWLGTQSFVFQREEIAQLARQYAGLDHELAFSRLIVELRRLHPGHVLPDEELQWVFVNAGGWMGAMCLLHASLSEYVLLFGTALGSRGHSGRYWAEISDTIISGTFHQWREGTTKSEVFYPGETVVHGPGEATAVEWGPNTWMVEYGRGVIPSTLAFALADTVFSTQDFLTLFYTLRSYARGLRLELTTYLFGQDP
Method: as §2

β1-adrenergic receptor = β1-adrenergic receptor (Homo sapiens, UniProt P08588); assay: in vitro selectivity panel, β1-adrenergic receptor; assay type: binding
Chain of β1-adrenergic receptor (P08588 whole entry): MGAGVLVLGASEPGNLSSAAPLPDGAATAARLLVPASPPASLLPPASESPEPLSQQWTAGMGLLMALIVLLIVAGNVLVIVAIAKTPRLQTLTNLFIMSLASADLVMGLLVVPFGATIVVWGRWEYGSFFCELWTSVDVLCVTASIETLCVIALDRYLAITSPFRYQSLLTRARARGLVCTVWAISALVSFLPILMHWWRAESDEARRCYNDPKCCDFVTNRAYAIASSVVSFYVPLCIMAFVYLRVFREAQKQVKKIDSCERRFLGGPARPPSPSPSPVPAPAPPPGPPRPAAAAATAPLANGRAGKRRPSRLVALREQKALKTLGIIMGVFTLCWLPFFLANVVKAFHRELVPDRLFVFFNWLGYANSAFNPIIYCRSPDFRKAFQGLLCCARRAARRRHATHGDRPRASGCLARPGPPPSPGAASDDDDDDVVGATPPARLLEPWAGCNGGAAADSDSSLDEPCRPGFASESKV
Method: as §2

dopamine D2 receptor = dopamine D2 receptor (Homo sapiens, UniProt P14416); assay: in vitro selectivity panel, dopamine D2 receptor; assay type: binding
Chain of dopamine D2 receptor (P14416 whole entry): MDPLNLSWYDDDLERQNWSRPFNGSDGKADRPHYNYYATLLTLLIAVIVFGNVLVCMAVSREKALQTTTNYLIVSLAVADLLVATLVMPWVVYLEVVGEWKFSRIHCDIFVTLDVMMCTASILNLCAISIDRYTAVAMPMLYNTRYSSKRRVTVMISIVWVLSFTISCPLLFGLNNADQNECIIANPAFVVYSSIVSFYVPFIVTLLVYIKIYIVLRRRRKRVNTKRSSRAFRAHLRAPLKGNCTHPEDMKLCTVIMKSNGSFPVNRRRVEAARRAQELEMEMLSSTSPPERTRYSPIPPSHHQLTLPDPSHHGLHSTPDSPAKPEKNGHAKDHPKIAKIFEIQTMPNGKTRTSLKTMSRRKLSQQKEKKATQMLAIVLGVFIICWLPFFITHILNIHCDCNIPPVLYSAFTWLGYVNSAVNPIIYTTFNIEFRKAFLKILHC
Method: as §2

rats = assay: forced swim test (behavioral despair assay) in rats; assay type: in vivo; conditions: rat, i.p., racemic mixtures of diastereomers
Method: In vivo efficacy of several illustrative inhibitors of the instant invention, (1), (3), and (4), were measured using standard forced swim test model using rat. The objective of this study was to assess the antidepressant effects of test compounds in the behavioral despair assay in rats using a modification of a method described by Porsolt R. D. et al. in Behavioural despair in rats: a new model sensitive to antidepressant treatment, Eur. J. Pharmacol., 47: 379-391, 1978; Porsolt et al., Nature 266: 730-732, 1977; and Porsolt et al., in Psychopharmacology, Olivier, Mos, and Slangen (eds) Birkhäuser Verlag, Basel, pp. 137-159, 1991. Briefly, when mice (or rats) are forced to swim in a cylinder from which no escape is possible, they readily adopt a characteristic immobile posture and make no further attempts to escape except for small movements needed to keep floating. The immobility is considered by some to reflect a “depressive mood” (Porsolt et al., Nature 266: 730-732, 1977) in which animals cease to struggle to escape the aversive situation. The immobility induced by the procedure is influenced by a wide variety of antidepressants (Porsolt et al., in Psychopharmacology, Olivier, Mos, and Slangen (eds) Birkhauser Verlag, Basel, pp. 137-159, 1991) and has a good predictive validity in that it detects antidepressants with different mechanisms of action (TCAs, SSRIs, MAOIs, and other atypical ones). The test is sensitive to muscle-relaxant (benzodiazepines) and sedative (neuroleptics) effects, leading to enhanced immobility (Porsolt et al., supra).
In a typical experiment, animals are placed singly into a cylinder (e.g. 46×30 cm) containing fresh water at about 20° C. for 6 minutes. The activity (or immobility) of the animal is measured by an observer minute by minute. In more detail, the animals were preconditioned in a pretest session, where the rats were individually forced to swim inside a vertical plexiglass cylinder containing water maintained at 19-20° C. After 15 minutes in the water, they were allowed to dry for […] in a heated enclosure. Twenty-four hours later, the compounds were administered either intraperitoneally or orally to the animals. One hour after administration of the test compound, animals were put back into the cylinder containing water. The total duration of immobility was measured during the last 4 minutes of a 6 minute test.
The results are expressed as the percentage of variation of the total duration of immobility calculated from the mean value of the vehicle-treated group (% variation=[(immobility duration of vehicle−immobility duration of test compound)/(immobility duration of vehicle)]×100%).
In order to measure the in vivo efficacy of inhibiting DAT in rats using an inhibitor of the instant invention, one test inhibitor ((1), (3), or (4)) was injected i.p. as racemic mixtures of diastereomers into the animals, at various-doses (e.g. 7.5 and […]). Sibutramine (2.0 and 2.5 mg/kg), Bupropion (7.5 and 10 mg/kg), and Imipramine (30 mg/kg) were similarly administered as controls. […] Asterisks indicate highly statistical significant results.
A fourth inhibitor, (6) was administered p.o. as a racemic mixture of diastereomers at either 35 or 75 mg/kg. Sibutramine (5.0 and 3.75 mg/kg), Bupropion (30 and 40 mg/kg), and Imipramine (100 mg/kg) were similarly administered as controls.
Similarly, (1) was also administered p.o. as a racemic mixture of enriched (95:5) diastereomer at either 35 or 75 mg/kg. […]

in vivo = conditions: rat
DAT = target: T6, DAT (Homo sapiens, UniProt Q01959); conditions: human recombinant CHO-K1 cells; historical value (MDS Pharma Services); read-out: KD of radioligand, DAT assay; cited from earlier work
T6 construct: expressed in transfected cells; host or cells: CHO-K1
T6 sequence (Q01959 whole entry): as the sequence (Q01959 whole entry) above

NET = target: T7, NET (Homo sapiens, UniProt P23975); conditions: human recombinant MDCK cells; historical value (MDS Pharma Services); read-out: KD of radioligand, NET assay; cited from earlier work
T7 construct: expressed in transfected cells; host or cells: MDCK
T7 sequence (P23975 whole entry): as the sequence (P23975 whole entry) above

T1 sequence (P31645 whole entry): as the sequence (P31645 whole entry) above

CC1CCC(COc2ccc(C(F)(F)F)cc2)CN1CC1(c2ccc(Cl)cc2)CCC1 (stereo not drawn) [(3)]
EC50 (5-HT (h)): 825 nM | EC50 (DAT (h)): 1 nM | selectivity for DAT over 5-HT (DAT (h)): 825 fold | selectivity for DAT over NET (DAT (h)): 200 fold | EC50 (NET (h)): 200 nM | EC50 (DAT (r)): 50 nM | IC50 (DAT (SLC6A3)): 1 nM | fold selectivity of DAT against related receptors (NET, 5-HT) (DAT (SLC6A3); from Table II IC50): 150-550 fold | IC50 [1]: 150 nM | IC50 (5-HT): 550 nM | M1 (nM)h (M1 receptor): 5000 nM | Histamine H1 (nM)h (Histamine H1 receptor): 5000 nM | Sigma σ1 (nM)h (sigma-1 (σ1) receptor): 5000 nM | β1-adrenergic (nM)h (β1-adrenergic receptor): 5000 nM | D2 (nM)h (dopamine D2 receptor): 1000 nM | forced swim test efficacy versus commercial drugs (FIG. 1) (rats): performed equally well, if not better, than the commercial drugs Sibutramine, Bupropion, and Imipramine | Vd (in vivo): 10 L/kg | half-life (in vivo; iv): 500 min | bioavailability (in vivo; po): 70%

COC(=O)[C@H]1[C@@H](c2ccc(I)cc2)C[C@@H]2CC[C@H]1N2C [[^125I] RTI-55]
Kd (DAT): 0.58 nM | Kd (NET): 24 nM

From US20100093706A1, “MULTIMEDIATOR TRANSPORTER INHIBITORS FOR USE IN TREATMENT OF CENTRAL NERVOUS SYSTEM DISORDERS” (priority 2006, published 2010)
